In BindingDB's records for doi:10.1016/j.ejmech.2017.04.042 (Laval University, 2017):

Assays:
Cytochrome P450 1A1 = biological target: T1, Cytochrome P450 1A1 (Homo sapiens, UniProt P04798); test: Inhibition of CYP1A1 (unknown origin) expressed in Escherichia coli DH5alpha coexpressing human NADPH-P450 reductase using 7-Ethoxyresorufin as substrate up to 6 mins in presence of NADP+ by spectrofluorometric analysis
T1 sequence (P04798 whole entry): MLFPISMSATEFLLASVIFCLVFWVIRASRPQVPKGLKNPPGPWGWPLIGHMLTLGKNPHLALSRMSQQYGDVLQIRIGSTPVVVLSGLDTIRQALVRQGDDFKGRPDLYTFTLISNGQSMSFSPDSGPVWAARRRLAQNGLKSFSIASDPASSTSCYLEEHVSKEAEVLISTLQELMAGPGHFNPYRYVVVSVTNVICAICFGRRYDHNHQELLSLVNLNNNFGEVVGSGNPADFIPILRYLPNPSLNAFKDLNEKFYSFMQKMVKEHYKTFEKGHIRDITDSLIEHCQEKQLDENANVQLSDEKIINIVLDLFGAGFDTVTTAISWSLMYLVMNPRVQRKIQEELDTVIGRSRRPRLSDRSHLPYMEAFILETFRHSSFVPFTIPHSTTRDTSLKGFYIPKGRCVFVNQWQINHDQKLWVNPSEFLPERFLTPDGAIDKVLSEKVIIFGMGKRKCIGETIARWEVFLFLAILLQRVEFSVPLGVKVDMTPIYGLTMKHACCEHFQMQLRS

Cytochrome P450 1B1 [1] = biological target: T2, Cytochrome P450 1B1 (Homo sapiens, UniProt Q16678); test: Inhibition of CYP1B1 (unknown origin) expressed in Escherichia coli DH5alpha coexpressing human NADPH-P450 reductase using 7-Ethoxyresorufin as substrate up to 6 mins in presence of NADP+ by spectrofluorometric analysis
T2 sequence (Q16678 whole entry): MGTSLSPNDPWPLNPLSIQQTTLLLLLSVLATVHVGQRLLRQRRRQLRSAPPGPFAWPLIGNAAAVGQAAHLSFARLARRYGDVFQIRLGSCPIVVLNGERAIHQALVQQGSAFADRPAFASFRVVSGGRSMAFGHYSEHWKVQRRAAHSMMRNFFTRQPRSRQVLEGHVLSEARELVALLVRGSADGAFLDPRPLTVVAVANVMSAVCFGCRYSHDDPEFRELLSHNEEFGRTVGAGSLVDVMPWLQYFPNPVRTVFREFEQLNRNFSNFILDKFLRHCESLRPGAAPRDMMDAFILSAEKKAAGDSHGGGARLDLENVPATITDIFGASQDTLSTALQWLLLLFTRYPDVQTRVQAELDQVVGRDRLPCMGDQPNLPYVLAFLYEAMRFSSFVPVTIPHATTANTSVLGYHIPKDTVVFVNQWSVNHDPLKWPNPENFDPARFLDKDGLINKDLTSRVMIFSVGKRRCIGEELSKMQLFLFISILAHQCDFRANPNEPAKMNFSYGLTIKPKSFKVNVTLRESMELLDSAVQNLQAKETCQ

Cytochrome P450 1A2 = biological target: T3, Cytochrome P450 1A2 (Homo sapiens, UniProt P05177); test: ChEBML_1684878
T3 sequence (P05177 whole entry): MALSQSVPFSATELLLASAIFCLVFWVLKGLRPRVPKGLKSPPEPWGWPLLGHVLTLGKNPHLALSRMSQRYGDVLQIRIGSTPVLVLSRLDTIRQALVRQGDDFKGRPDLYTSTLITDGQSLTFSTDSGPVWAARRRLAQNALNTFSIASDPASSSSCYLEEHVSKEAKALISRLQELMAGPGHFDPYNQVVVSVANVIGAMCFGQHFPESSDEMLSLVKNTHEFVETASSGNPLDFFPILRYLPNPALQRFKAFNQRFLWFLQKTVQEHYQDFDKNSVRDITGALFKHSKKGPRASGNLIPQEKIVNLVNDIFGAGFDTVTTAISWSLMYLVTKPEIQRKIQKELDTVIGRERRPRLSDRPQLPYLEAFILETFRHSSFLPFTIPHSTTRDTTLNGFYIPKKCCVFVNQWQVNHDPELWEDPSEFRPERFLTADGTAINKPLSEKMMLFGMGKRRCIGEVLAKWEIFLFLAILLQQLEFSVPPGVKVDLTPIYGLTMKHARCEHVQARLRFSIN
Experimental: Competitive inhibition of human liver microsomes CYP1A2 expressed in supersomes coexpressing NADPH-CYP reductase using 7-Ethoxyresorufin as substrate measured every 5 mins for 30 mins in presence of NADPH by fluorescence assay

Cytochrome P450 1B1 [2] = biological target: T2, Cytochrome P450 1B1; test: Inhibition of human CYP1B1 expressed in supersomes using ethoxyresorufin as substrate after 20 mins in presence of NADP by Dixon plot analysis

| SMILES | IC50 (Cytochrome P450 1A1) [nM] | IC50 (Cytochrome P450 1B1 [1]) [nM] | IC50 (Cytochrome P450 1A2) [nM] | Ki (Cytochrome P450 1B1 [2]) [nM] |
| --- | --- | --- | --- | --- |
| N#C[Se]Cc1cccc(C[Se]C#N)c1 | 100 | 130 | 200 |  |
| C[C@]12CC[C@H]3[C@@H](CCC4=CC(=O)CC[C@@]43C)[C@@H]1CC[C@@H]2O [Testosterone, 1] |  |  |  | 412000 |
